Molecular target: T1, Catalase (Rattus norvegicus, UniProt P04762)
T1 sequence (P04762 whole entry): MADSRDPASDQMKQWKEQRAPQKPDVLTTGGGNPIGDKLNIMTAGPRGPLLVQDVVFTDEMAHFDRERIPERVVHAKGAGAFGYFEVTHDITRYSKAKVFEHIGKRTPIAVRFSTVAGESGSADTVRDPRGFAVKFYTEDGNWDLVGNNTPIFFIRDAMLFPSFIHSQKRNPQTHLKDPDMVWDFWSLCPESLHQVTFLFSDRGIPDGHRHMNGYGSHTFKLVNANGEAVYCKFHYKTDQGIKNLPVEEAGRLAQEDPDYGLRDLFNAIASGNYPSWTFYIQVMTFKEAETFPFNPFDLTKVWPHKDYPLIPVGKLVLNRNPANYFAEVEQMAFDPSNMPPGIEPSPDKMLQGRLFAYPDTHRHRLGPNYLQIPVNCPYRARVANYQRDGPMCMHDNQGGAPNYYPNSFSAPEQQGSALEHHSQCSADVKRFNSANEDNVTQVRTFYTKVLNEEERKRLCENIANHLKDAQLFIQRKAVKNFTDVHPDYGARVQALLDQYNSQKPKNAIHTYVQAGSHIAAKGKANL
Assay: Inhibition of catalase in Wistar rat brain

Compound | EC50
COc1ccc2c3c1O[C@H]1C[C@@H](OP(=O)(OCCO)N(CCCl)CCCl)C=C[C@@]31CCN(C)C2 (some centres not stated) | 4.12 µM
COc1ccc2c3c1O[C@H]1C[C@@H](OP(=O)(NCCO)N(CCCl)CCCl)C=C[C@@]31CCN(C)C2 (some centres not stated) | 2.84 µM
COc1ccc2c3c1O[C@H]1C[C@@H](OP(=O)(SCCO)N(CCCl)CCCl)C=C[C@@]31CCN(C)C2 (some centres not stated) | 3.02 µM
COc1ccc2c3c1O[C@H]1C[C@@H](OP(=O)(NCCN)N(CCCl)CCCl)C=C[C@@]31CCN(C)C2 (some centres not stated) | 5.11 µM
COc1ccc2c3c1O[C@H]1C[C@@H](OP(=O)(NCCO)Oc4ccc([N+](=O)[O-])cc4)C=C[C@@]31CCN(C)C2 (some centres not stated) | 9.29 µM
COc1ccc2c3c1O[C@H]1C[C@@H](OP(=O)(NCCN)Oc4ccc([N+](=O)[O-])cc4)C=C[C@@]31CCN(C)C2 (some centres not stated) | 3.41 µM
COc1ccc2c3c1O[C@H]1C[C@@H](OP(=O)(OCCO)Oc4ccc([N+](=O)[O-])cc4)C=C[C@@]31CCN(C)C2 (some centres not stated) | 6.15 µM
COc1ccc2c3c1O[C@H]1C[C@@H](OP(=O)(OP(=O)(O)O)N(CCCl)CCCl)C=C[C@@]31CCN(C)C2 (some centres not stated) | 3.81 µM
COc1ccc2c3c1O[C@H]1C[C@@H](OP(=O)(Oc4ccc([N+](=O)[O-])cc4)SCCO)C=C[C@@]31CCN(C)C2 (some centres not stated) | 7.74 µM
COc1ccc2c3c1O[C@H]1C[C@@H](OP(=O)(Oc4ccc([N+](=O)[O-])cc4)OP(=O)(O)O)C=C[C@@]31CCN(C)C2 (some centres not stated) | 5.13 µM
Cc1c(C)c2c(c(C)c1O)CC[C@@](C)(CCC[C@H](C)CCC[C@H](C)CCCC(C)C)O2 [CHEBI:18145] | 3.43 µM
COc1ccc2c3c1O[C@H]1C[C@@H](O)C=C[C@@]31CCN(C)C2 [galantamine] | 17.6 µM
